Assay results reported in ChEMBL document CHEMBL1201861, “Genomics of Drug Sensitity in Cancer screening data, Wellcome Trust Sanger Institute”.

Columns and labels:
Experiment in all cases: cells
Type in all cases: functional, cell-based, Homo sapiens
[1] = tested on: MHH-NB-11; conditions: Homo sapiens, MHH-NB-11;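 also: growth inhibition of human MHH-NB-11 cells, read out by a cell viability assay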
Description: SANGER: Inhibition of human MHH-NB-11 cell growth in a cell viability assay.

[2] = tested on: TE-11; conditions: Homo sapiens, TE-11;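 also: growth inhibition of human TE-11 cells, read out by a cell viability assay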
Description: SANGER: Inhibition of human TE-11 cell growth in a cell viability assay.

[3] = tested on: KALS-1; conditions: Homo sapiens, KALS-1;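 also: growth inhibition of KALS-1 cells, determined with a cell viability assay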
Description: SANGER: Inhibition of human KALS-1 cell growth in a cell viability assay.

[4] = tested on: Ramos-2G6-4C10; conditions: Homo sapiens, Ramos-2G6-4C10;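 also: growth inhibition of the cell line, measured by a cell viability read-out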
Description: SANGER: Inhibition of human Ramos-2G6-4C10 cell growth in a cell viability assay.

[5] = tested on: NCI-H1304; conditions: Homo sapiens, NCI-H1304;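 also: growth inhibition of the cancer cell line, measured in a cell viability assay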
Description: SANGER: Inhibition of human NCI-H1304 cell growth in a cell viability assay.

[6] = tested on: KNS-42; conditions: Homo sapiens, KNS-42;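 also: growth inhibition of KNS-42 cells, read out with a cell viability assay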
Description: SANGER: Inhibition of human KNS-42 cell growth in a cell viability assay.

[7] = tested on: MMAC-SF; conditions: Homo sapiens, MMAC-SF;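 also: growth inhibition of human MMAC-SF cells, read out with a cell viability assay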
Description: SANGER: Inhibition of human MMAC-SF cell growth in a cell viability assay.

[8] = tested on: A4-Fuk; conditions: Homo sapiens, A4-Fuk;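 also: growth inhibition of A4-Fuk cells, read out by a cell viability assay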
Description: SANGER: Inhibition of human A4-Fuk cell growth in a cell viability assay.

[9] = tested on: EW-1; conditions: Homo sapiens, EW-1;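 also: growth inhibition of the human EW-1 cell line, read out by a cell viability assay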
Description: SANGER: Inhibition of human EW-1 cell growth in a cell viability assay.

[10] = tested on: GI-1; conditions: Homo sapiens, GI-1;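 also: growth inhibition of human GI-1 cells, measured with a cell viability readout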
Description: SANGER: Inhibition of human GI-1 cell growth in a cell viability assay.

[11] = tested on: HT-144; conditions: Homo sapiens, HT-144
Description: SANGER: Inhibition of human HT-144 cell growth in a cell viability assay.

[12] = tested on: OS-RC-2; conditions: Homo sapiens, OS-RC-2;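 also: growth inhibition of human OS-RC-2 cells, measured by a cell viability assay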
Description: SANGER: Inhibition of human OS-RC-2 cell growth in a cell viability assay.

[13] = tested on: NCI-H23; conditions: Homo sapiens, NCI-H23;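 also: cell viability assay measuring growth inhibition of NCI-H23 cells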
Description: SANGER: Inhibition of human NCI-H23 cell growth in a cell viability assay.

[14] = tested on: KGN; conditions: Homo sapiens, KGN;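 also: growth inhibition of KGN cells, read out with a cell viability assay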
Description: SANGER: Inhibition of human KGN cell growth in a cell viability assay.

[15] = tested on: Mo; conditions: Homo sapiens, Mo
Description: SANGER: Inhibition of human Mo-T cell growth in a cell viability assay.

[16] = tested on: MHH-PREB-1; conditions: Homo sapiens, MHH-PREB-1;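 also: cell viability assay measuring inhibition of proliferation of human MHH-PREB-1 cells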
Description: SANGER: Inhibition of human MHH-PREB-1 cell growth in a cell viability assay.

[17] = tested on: LB2241-RCC; conditions: Homo sapiens, LB2241-RCC;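 also: cell viability assay measuring how strongly the cultured human renal carcinoma line is prevented from growing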
Description: SANGER: Inhibition of human LB2241-RCC cell growth in a cell viability assay.

[18] = tested on: LS-513; conditions: Homo sapiens, LS-513
Description: SANGER: Inhibition of human LS-513 cell growth in a cell viability assay.

[19] = tested on: GB-1; conditions: Homo sapiens, GB-1;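 also: growth of GB-1 cells judged by a viability assay, IC50 marks the concentration inhibiting growth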
Description: SANGER: Inhibition of human GB-1 cell growth in a cell viability assay.

[20] = tested on: NCI-H747; conditions: Homo sapiens, NCI-H747;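 also: growth inhibition of human NCI-H747 cells, read out by a cell viability assay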
Description: SANGER: Inhibition of human NCI-H747 cell growth in a cell viability assay.

[21] = tested on: MOLT-4; conditions: Homo sapiens, MOLT-4;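 also: growth inhibition of MOLT-4 cells, determined with a cell viability readout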
Description: SANGER: Inhibition of human MOLT-4 cell growth in a cell viability assay.

[22] = tested on: LS-1034; conditions: Homo sapiens, LS-1034
Description: SANGER: Inhibition of human LS-1034 cell growth in a cell viability assay.

[23] = tested on: KP-N-YS; conditions: Homo sapiens, KP-N-YS;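 also: cell viability assay measuring inhibition of cell line growth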
Description: SANGER: Inhibition of human KP-N-YS cell growth in a cell viability assay.

[24] = tested on: DJM-1; conditions: Homo sapiens, DJM-1;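 also: growth inhibition of human DJM-1 cells, read out by a cell viability assay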
Description: SANGER: Inhibition of human DJM-1 cell growth in a cell viability assay.

[25] = tested on: KARPAS-299; conditions: Homo sapiens, KARPAS-299
Description: SANGER: Inhibition of human KARPAS-299 cell growth in a cell viability assay.

[26] = tested on: COLO-829; conditions: Homo sapiens, COLO-829
Description: SANGER: Inhibition of human COLO-829 cell growth in a cell viability assay.

[27] = tested on: NB5; conditions: Homo sapiens, NB5;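 also: growth inhibition of NB5 cells, read out as cell viability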
Description: SANGER: Inhibition of human NB5 cell growth in a cell viability assay.

[28] = tested on: NB69; conditions: Homo sapiens, NB69;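 also: growth inhibition of NB69 cells, determined by a cell viability assay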
Description: SANGER: Inhibition of human NB69 cell growth in a cell viability assay.

[29] = tested on: EKVX; conditions: Homo sapiens, EKVX;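 also: growth inhibition of human EKVX cells, read out with a cell viability assay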
Description: SANGER: Inhibition of human EKVX cell growth in a cell viability assay.

[30] = tested on: NCI-H510A; conditions: Homo sapiens, NCI-H510A;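 also: growth inhibition of NCI-H510A cells, read out with a cell viability assay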
Description: SANGER: Inhibition of human NCI-H510A cell growth in a cell viability assay.

[31] = tested on: MSTO-211H; conditions: Homo sapiens, MSTO-211H
Description: SANGER: Inhibition of human MSTO-211H cell growth in a cell viability assay.

[32] = tested on: HCE-T; conditions: Homo sapiens, HCE-T;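 also: cell viability assay read-out, reporting inhibition of HCE-T cell growth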
Description: SANGER: Inhibition of human HCE-T cell growth in a cell viability assay.

[33] = tested on: P30-OHK; conditions: Homo sapiens, P30-OHK;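 also: growth inhibition of the P30-OHK cell line, read out with a cell viability assay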
Description: SANGER: Inhibition of human P30-OHK cell growth in a cell viability assay.

[34] = tested on: SK-MEL-1; conditions: Homo sapiens, SK-MEL-1;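 also: growth inhibition of human SK-MEL-1 cells, read out by a cell viability assay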
Description: SANGER: Inhibition of human SK-MEL-1 cell growth in a cell viability assay.

[35] = tested on: CTV-1; conditions: Homo sapiens, CTV-1;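 also: growth inhibition of the cell line, read out with a cell viability assay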
Description: SANGER: Inhibition of human CTV-1 cell growth in a cell viability assay.

[36] = tested on: A388; conditions: Homo sapiens, A388;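 also: growth inhibition of human A388 cells, read out with a cell viability assay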
Description: SANGER: Inhibition of human A388 cell growth in a cell viability assay.

[37] = tested on: CP66-MEL; conditions: Homo sapiens, CP66-MEL;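 also: growth inhibition of CP66-MEL cells determined in a cell viability assay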
Description: SANGER: Inhibition of human CP66-MEL cell growth in a cell viability assay.

[38] = tested on: D283 Med; conditions: Homo sapiens, D283 Med
Description: SANGER: Inhibition of human D-283MED cell growth in a cell viability assay.

[39] = tested on: SCC-15; conditions: Homo sapiens, SCC-15;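 also: growth inhibition of SCC-15 cells, read out with a cell viability assay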
Description: SANGER: Inhibition of human SCC-15 cell growth in a cell viability assay.

[40] = tested on: COLO-320-HSR; conditions: Homo sapiens, COLO-320-HSR;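 also: growth inhibition of COLO-320-HSR cells, determined with a cell viability assay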
Description: SANGER: Inhibition of human COLO-320-HSR cell growth in a cell viability assay.

[41] = tested on: no-10; conditions: Homo sapiens;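 also: growth inhibition of no-10 cells, read out with a cell viability assay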
Description: SANGER: Inhibition of human no-10 cell growth in a cell viability assay.

[42] = tested on: JVM-3; conditions: Homo sapiens, JVM-3;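 also: growth inhibition of human JVM-3 cells, read out with a cell viability assay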
Description: SANGER: Inhibition of human JVM-3 cell growth in a cell viability assay.

[43] = tested on: VA-ES-BJ; conditions: Homo sapiens, VA-ES-BJ;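 also: growth inhibition of the VA-ES-BJ cell line, read out by a cell viability assay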
Description: SANGER: Inhibition of human VA-ES-BJ cell growth in a cell viability assay.

[44] = tested on: JVM-2; conditions: Homo sapiens, JVM-2;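 also: growth inhibition of JVM-2 cells determined by a cell viability assay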
Description: SANGER: Inhibition of human JVM-2 cell growth in a cell viability assay.

[45] = tested on: GCIY; conditions: Homo sapiens, GCIY;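 also: growth inhibition of the human GCIY cell line, read out by a cell viability assay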
Description: SANGER: Inhibition of human GCIY cell growth in a cell viability assay.

[46] = tested on: EW-18; conditions: Homo sapiens, EW-18;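 also: growth inhibition of EW-18 cells, read out by a cell viability assay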
Description: SANGER: Inhibition of human EW-18 cell growth in a cell viability assay.

[47] = tested on: GR-ST; conditions: Homo sapiens, GR-ST
Description: SANGER: Inhibition of human GR-ST cell growth in a cell viability assay.

[48] = tested on: OCI-AML2; conditions: Homo sapiens, OCI-AML2;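 also: growth inhibition of OCI-AML2 cells, read out with a cell viability assay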
Description: SANGER: Inhibition of human OCI-AML2 cell growth in a cell viability assay.

[49] = tested on: NTERA-2-cl-D1; conditions: Homo sapiens, NTERA-2-cl-D1;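 also: inhibition of cell growth, measured with a cell viability assay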
Description: SANGER: Inhibition of human NTERA-S-cl-D1 cell growth in a cell viability assay.

`OCCCNc1cc(-c2ccnc(Nc3cccc(Cl)c3)n2)ccn1` was tested, and the IC50 [1] was 217 nM, the IC50 [2] was 34.2 nM and the IC50 [3] was 35.3 nM. For the same compound, the IC50 [4] was 59.3 nM, the IC50 [5] was 104 nM and the IC50 [6] was 130 nM. The IC50 [7] was over 256 nM, the IC50 [8] was 28 nM and the IC50 [9] was 45.8 nM. It also gave an IC50 [10] of 78.1 nM, an IC50 [11] of 20.6 nM and an IC50 [12] of 82.9 nM. The IC50 [13] was 245 nM, the IC50 [14] was 10.5 nM and the IC50 [15] was over 256 nM. The IC50 [16] was 58.4 nM, the IC50 [17] was over 256 nM and the IC50 [18] was over 256 nM. For the same compound, the IC50 [19] was 38 nM, the IC50 [20] was 47.3 nM and the IC50 [21] was over 256 nM. The IC50 [22] was 255 nM, the IC50 [23] was over 256 nM and the IC50 [24] was over 256 nM. For the same compound, the IC50 [25] was 29.2 nM, the IC50 [26] was over 256 nM and the IC50 [27] was over 256 nM. The IC50 [28] was over 256 nM, the IC50 [29] was over 256 nM and the IC50 [30] was over 256 nM. For the same compound, the IC50 [31] was over 256 nM, the IC50 [32] was 47.3 nM and the IC50 [33] was over 256 nM. For the same compound, the IC50 [34] was over 256 nM, the IC50 [35] was 66 nM and the IC50 [36] was 47.7 nM. The IC50 [37] was over 256 nM, the IC50 [38] was over 256 nM and the IC50 [39] was over 256 nM. For the same compound, the IC50 [40] was 82.9 nM, the IC50 [41] was 14.8 nM and the IC50 [42] was over 256 nM. It also gave an IC50 [43] of 41.6 nM, an IC50 [44] of over 256 nM and an IC50 [45] of over 256 nM. It also gave an IC50 [46] of over 256 nM, an IC50 [47] of 174 nM and an IC50 [48] of 62.6 nM. The IC50 [49] was 50.8 nM.

In the case of `COc1cc2ncn(-c3cc(OCc4ccccc4C(F)(F)F)c(C(N)=O)s3)c2cc1OC` [GW843682X], the IC50 [1] is reported as 227 nM, the IC50 [2] is reported as 10.7 nM and the IC50 [3] is reported as 22.5 nM. It also gave an IC50 [4] of 37.4 nM, an IC50 [5] of 105 nM and an IC50 [6] of 24.7 nM. For the same compound, the IC50 [7] was over 256 nM, the IC50 [8] was 20.8 nM and the IC50 [9] was 16.8 nM. The IC50 [10] was 7.3 nM, the IC50 [11] was 16.4 nM and the IC50 [12] was 188 nM. For the same compound, the IC50 [13] was over 256 nM, the IC50 [14] was 33.2 nM and the IC50 [15] was over 256 nM. It also gave an IC50 [16] of 20.8 nM, an IC50 [17] of over 256 nM and an IC50 [18] of 212 nM. For the same compound, the IC50 [19] was 27.5 nM, the IC50 [20] was 76.7 nM and the IC50 [21] was 26.9 nM. It also gave an IC50 [22] of 59.7 nM, an IC50 [23] of 27.2 nM and an IC50 [24] of 60.6 nM. It also gave an IC50 [25] of 94.3 nM, an IC50 [26] of over 256 nM and an IC50 [27] of 86.2 nM. The IC50 [28] was over 256 nM, the IC50 [29] was over 256 nM and the IC50 [30] was 16.6 nM. The IC50 [31] was over 256 nM, the IC50 [32] was 217 nM and the IC50 [33] was over 256 nM. For the same compound, the IC50 [34] was over 256 nM, the IC50 [35] was 30.4 nM and the IC50 [36] was 15.2 nM. For the same compound, the IC50 [37] was 162 nM, the IC50 [38] was over 256 nM and the IC50 [39] was over 256 nM. It also gave an IC50 [40] of 28.1 nM, an IC50 [41] of 20.7 nM and an IC50 [42] of over 256 nM. It also gave an IC50 [43] of 22.7 nM, an IC50 [44] of over 256 nM and an IC50 [45] of 48 nM. The IC50 [46] was over 256 nM, the IC50 [47] was 84 nM and the IC50 [48] was 49.9 nM. For the same compound, the IC50 [49] was 17.4 nM.

Compound `N[C@@H](CSC(c1ccccc1)(c1ccccc1)c1ccccc1)C(=O)O` [S-TRITYL-L-CYSTEINE] has an IC50 [1] of 4670 nM, an IC50 [2] of 451 nM and an IC50 [3] of 1320 nM. It also gave an IC50 [4] of 1550 nM, an IC50 [5] of over 5120 nM and an IC50 [6] of 2580 nM. For the same compound, the IC50 [7] was 2690 nM, the IC50 [8] was 453 nM and the IC50 [9] was 1510 nM. For the same compound, the IC50 [10] was over 5120 nM, the IC50 [11] was 310 nM and the IC50 [12] was over 5120 nM. The IC50 [13] was over 5120 nM, the IC50 [14] was 622 nM and the IC50 [15] was over 5120 nM. The IC50 [16] was over 5120 nM, the IC50 [17] was over 5120 nM and the IC50 [18] was over 5120 nM. It also gave an IC50 [19] of over 5120 nM, an IC50 [20] of over 5120 nM and an IC50 [21] of 4290 nM. It also gave an IC50 [22] of 2780 nM, an IC50 [23] of over 5120 nM and an IC50 [24] of over 5120 nM. The IC50 [25] was 4180 nM, the IC50 [26] was over 5120 nM and the IC50 [27] was over 5120 nM. For the same compound, the IC50 [28] was 1760 nM, the IC50 [29] was over 5120 nM and the IC50 [30] was 1380 nM. For the same compound, the IC50 [31] was over 5120 nM, the IC50 [32] was 2790 nM and the IC50 [33] was over 5120 nM. For the same compound, the IC50 [34] was over 5120 nM, the IC50 [35] was 788 nM and the IC50 [36] was 620 nM. The IC50 [37] was 3440 nM, the IC50 [38] was over 5120 nM and the IC50 [39] was over 5120 nM. The IC50 [40] was 894 nM, the IC50 [41] was 1960 nM and the IC50 [42] was over 5120 nM. The IC50 [43] was 804 nM, the IC50 [44] was over 5120 nM and the IC50 [45] was 1820 nM. The IC50 [46] was over 5120 nM, the IC50 [47] was 2970 nM and the IC50 [48] was 4220 nM. It also gave an IC50 [49] of over 5120 nM.
